Patent US6610648B2, “Malodor counteractant compositions” (Givaudan SA, priority 2000, dated 2003)
“And” between values parts separate entries of the source, which are not always exact repeats. Equal values may be shown once. Where a name gives a salt, the structure may show the parent alone.

Columns and labels:
Design in all cases: species or system human
[1] = Synthetic axilla malodor on cotton pads, 10-member panel rating of malodor strength; details: for Class A + Malodor (strength of the axilla malodor, panel score): 0.4 g ethanolic solution with 10% (wt) test compound on malodor pad, 10-member panel after 3 hours; for Class A + Malodor (strength of the axilla malodor, panel score) / 50% DHF/50% Class A (strength of the axilla malodor, panel score): scale 5 overpowering to 1 not detectable; for 50% DHF/50% Class A (strength of the axilla malodor, panel score): test solution 5% (wt) DHF and 5% (wt) Class A compound, after 3 hours
Method: 100 μl of synthetic axilla malodor was placed onto cotton pads. 0.4 g of an ethanolic solution containing 10% (wt) of a test compound identified in Table 1 was placed on each axilla malodor treated cotton pad. Each pad was allowed to dry 15 for minutes, and then evaluated using a 10-member panel after 3 hours. The test cotton pads were randomized, and each panelist was asked to check a box that represented the strength of the axilla malodor using the following scale:
In this example, the MO effect of various mixtures of a Class A MOC compound and a Class B MOC compound (i.e., dihexyl fumarate (“DHF”) as disclosed in Kulka, U.S. Pat. No. 3,074,892) were evaluated using the same test and malodor evaluation procedures as set forth in Example 1. Each test sol ion contained 5% (wt) DHF and 5% (wt) of the Class A compound identified in Table 3. The MOC effect was evaluated as in Example 1.
Various mixtures of OMC (a Class A Compound) and a Class B compound (i.e., various cyclohexyl esters as disclosed in Schleppnik '221) as identified in Table 4 below were made according to the procedure set forth in Example 1. The MOC of each mixture was evaluated using the procedure set forth in Example 1.

[2] = MOC of sweat malodor on fabric swatches; details: Table 6
Method: The following fabric treatment solutions were prepared:
1. A solution of ethanol and Cremophor (a hydrogenated ethoxylated castor oil marketed by BASF Corp., Mount Olive, N.J.) containing 10% (wt) of dihexyl fumarate (DHF).
2. A solution of ethanol and Cremophor containing 10% (wt) of OMC.
3. A solution of ethanol and Cremophor containing 5% (wt) of DHF+5% (wt) OMC.
Five (5) fabric swatches were prepared, and labeled A-E. Swatch A was designated as the control swatch with no malodor. 100 μl of sweat malodor was placed in the middle of swatches B-E. Swatch B was designated as the control swatch for the malodor. The swatches were allowed to equilibrate with the malodor for 20 minutes. Onto swatches C-E, the following solutions were sprayed:
The malodor intensity on the cotton swatches was evaluated as follows:
The malodor intensity on swatch B (Malodor Control) was identified as a 5 (overpoweringly strong) on the scale of 1-5 set forth below at every time point, and the rest of swatches were evaluated based on that standard.

[3] = Garlic malodor on cotton fabric, 20-member panel; details: 0.4 g of 5% OMC in ethanol on cotton pad with 2.5% (wt) garlic solution; average of 20 panelists; three hours; scale 1-5
Method: (§1) The ability of OMC to reduce the malodor intensity of tobacco smoke, onion, and garlic solutions on cotton fabric was determined.
(§2) Cotton cloth pads were evaluated by 20 panelists to determine how well OMC reduced the perceived odor of tobacco smoke, onion, and garlic solutions on cotton fabric.
(§3) Samples were prepared fresh before each evaluation. A solution of 2.5% (wt) garlic and a solution of 2.5% (wt) onion were both made using 39C alcohol as the solvent. Briefly, 0.4 g of the garlic and onion solutions were each sprayed onto cotton towel pads (100% cotton, 5×5cm). 0.4 g of a test solution containing 5% OMC in ethanol were then sprayed on the onion and garlic-treated cotton pads. The pads were allowed to dry for 15-20 minutes under a fume hood. Each pad was then placed in a blind coded Petri-dish.
(§4) Controls were prepared from cotton pads, which were treated only with the garlic or onion solution (i.e., no OMC test solution).
(§5) The effect of the test solutions on the garlic or onion odors were evaluated by asking a 20-member panel to rate the intensity of the malodor present on the controls and on the treated fabrics using a scale of 1-5 as shown below three hours after the preparation of each sample. The data are average values from the scores by each of the 20 panelists.

[4] = Tobacco smoke malodor on cotton fabric, 20-member panel; details: 0.4 gram of 5% (wt) OMC in ethanol on smoke-treated cotton fabric; average of 20 panelists; three hours; scale 1-5
Method: as §1, §2, §5
Samples were prepared fresh before each evaluation. Clean pieces of fabric were treated with smoke by placing each fabric piece in a smoked filled environment for 10 minutes. Each piece of fabric was sprayed with 0.4 gram of the 5% (wt) OMC in ethanol test solution set forth above in the garlic and onion example. The treated fabric pieces were left to dry for 15 minutes, and then wrapped in foil.
Controls were prepared from a smoke-treated piece of cloth that was not sprayed with a test solution.
The fabric pieces were evaluated in the same way as described above in the onion and garlic example.

[5] = Onion malodor on cotton fabric, 20-member panel; details: 0.4 g of 5% OMC in ethanol on cotton pad with 2.5% (wt) onion solution; average of 20 panelists; three hours; scale 1-5
Method: as §1, §2, §3, §4, §5

Row | SMILES | Class A + Malodor (strength of the axilla malodor, panel score) [1] | 50% DHF/50% Class A (strength of the axilla malodor, panel score) [1] | other results
1 | CCCCCCOC(=O)/C=C/C(=O)OCCCCCC [Dihexyl Fumarate, reference compound] |  |  | 10% test (Compound B Alone) malodor score ([1]; 10% Class B compound alone, procedure of Example 1, scale 1-5): 2.6; 5% OMC + 5% Compound B malodor score ([1]; mixture 5% OMC + 5% Class B compound, procedure of Example 1, scale 1-5): 2.3; MOC effect in words, compound alone [2]: had a MOC effect
2 | CCCCCCCCCCOC(=O)/C=C/c1ccccc1 [GR 85 3428] | 2.8 | 3.3 | 
3 | C/C(=C\c1ccccc1O)C(=O)OCCC(C)CCc1ccccc1 (centres unmarked) [GR 85-1407] | 3.4 | 3.0 | 
4 | CC(C)=CCCC(C)CCOC(=O)/C=C/c1ccccc1O (centres unmarked) [GR 85-2280] | 2.9 | 3.1 | 
5 | CC(C)=CCCC(C)CCOC(=O)/C(C#N)=C/c1ccccc1O (centres unmarked) [GR 85-2661] | 2.9 | 2.4 | 
6 | COc1ccc(OC)c(/C=C/C(=O)OCCC(C)CCC=C(C)C)c1 (centres unmarked) [GR 85-3260] | 3.5 | 2.9 | 
7 | COC(=O)/C(C#N)=C/c1ccccc1 [GR 85-3427] | 3.0 | 3.3 | 
8 | CCCCC(CC)COC(=O)/C=C/c1ccccc1 (centres unmarked) [GR 85-3429] | 3.3 | 2.8 | 
9 | CC(C)=CCCC(C)CCOC(=O)/C=C/c1ccccc1O[Si](C)(C)C (centres unmarked) [GR 85-3565] | 2.7 | 3.1 | 
10 | CCCCC(C)COC(=O)C1=Cc2ccc(OC)cc2CC1 (centres unmarked) [GR 85-6495] | 2.8 | 3.0 | 
11 | CCCCC(C)COC(=O)c1cc2ccccc2oc1=O (centres unmarked) [GR 85-6924] | 2.9 | 2.5 | 
12 | CCCCC(CC)COC(=O)/C=C/c1ccc(OC)cc1 (centres unmarked) [OMC, Octyl methoxy cinnamate] | 2.6 | 2.3 | Malodor intensity, Garlic [3]: 2.6; 10% OMC (Alone) malodor score ([1]; 10% OMC alone, run beside the Compound B of that line, scale 1-5): 3.1 and 2.6 and 3.0; MOC effect in words, mixture of Class A and Class B compound versus alone ([1]; axilla malodor test pads, Tables 3 and 4): acts at least additively with the Class B compounds; MOC effect in words, compound alone [2]: had a MOC effect; Malodor intensity, Smoke [4]: 1.8; Malodor intensity, Onion [5]: 2.7
13 | O=C(/C=C/c1ccccc1)OCCc1ccccc1 [PC, Phenylethylcinnamate] | 2.2 |  | 
